In patent US20220232834A1, “PSEUDOMONAS CHLORORAPHIS SPECIES AND ITS USE IN THE CONTROL OF DISEASES CAUSED BY BACTERIA AND FUNGI” (T3 BIOSCIENCE, LLC, priority 2021, published 2022):
In brackets after ≈: the same amount, converted by molar mass. Like-named read-outs stand apart in the source and are kept apart here. Marks after values point to notes of the source that are not given here.

Key:
Staphylococcus aureus = details: Ref 3-4; producer Pseudomonas sp. B-9004; cited from earlier work
[1] = system: 22 bacteria and fungi, including Gram-positive bacteria mycobacteria; details: Ref 3-4; producer Pseudomonas sp. B-9004; cited from earlier work
[2] = system: Enterococcus hirae ATCC 8043; details: Ref 6; producer Pseudomonas aurantiaca; cited from earlier work
[3] = system: Bacillus subtilis subsp. spizizenii ATCC 6633; details: Ref 6; producer Pseudomonas aurantiaca; cited from earlier work
[4] = system: Streptococcus mutans ATCC 25175; details: Ref 6; producer Pseudomonas aurantiaca; cited from earlier work
[5] = system: Ralstonia solanacearum K60; experiment: microbe, parasite or virus in culture; assay type: cell-based
[6] = system: Xanthomonas euvesicatoria 75-3; experiment: microbe, parasite or virus in culture; assay type: cell-based; details: 753
[7] = system: Phytophthora infestans 88069; experiment: microbe, parasite or virus in culture; assay type: cell-based
Fusarium culmorum = details: Ref 1; producer Pseudomonas sp. Ki19; cited from earlier work
[8] = system: Staphylococcus aureus ATCC 12600; details: Ref 6; producer Pseudomonas aurantiaca; cited from earlier work
[9] = system: Pseudomonas syringae. pv. tomato PT30; experiment: microbe, parasite or virus in culture; assay type: cell-based
[10] = system: Venturia inaequalis VI19-032; experiment: microbe, parasite or virus in culture; assay type: cell-based; details: VI19032
Candida albicans = details: Ref 1; producer Pseudomonas sp. Ki19; cited from earlier work
[11] = system: Clavibacter michiganensis subsp. michiganensis 382; experiment: MIC value study of 1214-CHY4 metabolites; assay type: cell-based
Staphyllococcus aureus = details: Ref 1; producer Pseudomonas sp. Ki19; cited from earlier work
Aspergillus fumigatus = details: Ref 1; producer Pseudomonas sp. Ki19; cited from earlier work
[12] = system: Staphylococcus epidermidis ATCC 14990; details: Ref 6; producer Pseudomonas aurantiaca; cited from earlier work
[13] = Ref 5, producer Pseudomonas sp. DC165, cited from earlier work
Drechslera sorokiniana = details: Ref 1; producer Pseudomonas sp. Ki19; cited from earlier work
Botrytis cinerea CA17 = experiment: microbe, parasite or virus in culture; assay type: cell-based
Pseudomonas sevastanoi = details: Ref 1; producer Pseudomonas sp. Ki19; cited from earlier work
Botrytis cinerea = details: cited from earlier work
Seiridium cardinale = details: Ref 4; producer P. chlororaphis subsp. aureofaciens M71; cited from earlier work
[14] = system: Alternaria alternata, Phytophthora sp., Fusarium solani, F. oxysporum; details: Ref 12; producer P. chlororaphis MCC2693; cited from earlier work
Vibrio anguillarum C312 = details: Ref 5; producer P. aeruginosa PA31x; cited from earlier work
Fusarium oxysporum = details: cited from earlier work
Phytophthora infestans = details: cited from earlier work
[15] = system: Gaeumannomyces graminis var. tritici.; details: Ref 6; producer P. fluorescens 2-79; cited from earlier work
[16] = system: Clavibacter michiganensis subsp. michiganensis Cmm 0690; experiment: plate diffusion assay; assay type: cell-based; details: 200 μg/mL, read-out: Diameter of Growth Inhibition Zone
[17] = system: Clavibacter michiganensis subsp. michiganensis Cmm 0317; experiment: plate diffusion assay; assay type: cell-based; details: 200 μg/mL, read-out: Diameter of Growth Inhibition Zone
[18] = system: Clavibacter michiganensis subsp. michiganensis NCPPB382; experiment: plate diffusion assay; assay type: cell-based; details: 200 μg/mL, read-out: Diameter of Growth Inhibition Zone
[19] = system: Pectobacterium carotovorum subsp. carotovorum wpp14 945; experiment: microbe, parasite or virus in culture; assay type: cell-based; details: read-out: Diameter of Growth Inhibition Zone
[20] = system: Pseudomonas syringae. pv syringae 7046; experiment: microbe, parasite or virus in culture; assay type: cell-based; details: read-out: Diameter of Growth Inhibition Zone
[21] = system: Pseudomonas savastanoi pv. savastanoi; experiment: microbe, parasite or virus in culture; assay type: cell-based; details: read-out: Diameter of Growth Inhibition Zone
[22] = system: Ralstonia solanacearum K60; experiment: microbe, parasite or virus in culture; assay type: cell-based; details: K60, read-out: Diameter of Growth Inhibition Zone
[23] = system: Pectobacterium parmentieri UPP163 936; experiment: microbe, parasite or virus in culture; assay type: cell-based; details: UPP163936, read-out: Diameter of Growth Inhibition Zone
[24] = system: Xanthomonas arboricola pv. juglandis 219; experiment: microbe, parasite or virus in culture; assay type: cell-based; details: read-out: Diameter of Growth Inhibition Zone
Erwinia amylovora DM1 = experiment: microbe, parasite or virus in culture; assay type: cell-based; details: DM1, read-out: Diameter of Growth Inhibition Zone
[25] = system: Xanthomonas axonopodis pv. citri-Miami XC2002-00010; experiment: plate diffusion assay; assay type: cell-based; details: read-out: Diameter of Growth Inhibition Zone
Erwinia amylovora 1189 = experiment: microbe, parasite or virus in culture; assay type: cell-based; details: Erwinia amylovora, 1189, read-out: Diameter of Growth Inhibition Zone
[26] = system: Ralstonia solanacearum Pss4; experiment: microbe, parasite or virus in culture; assay type: cell-based; details: PSS4, read-out: Diameter of Growth Inhibition Zone
[27] = system: Pseudomonas syringae. pv. lachrymans 1188-1; experiment: microbe, parasite or virus in culture; assay type: cell-based; details: read-out: Diameter of Growth Inhibition Zone
[28] = system: Xanthomonas campestris pv. vesicatoria XV-16; experiment: microbe, parasite or virus in culture; assay type: cell-based; details: read-out: Diameter of Growth Inhibition Zone
Dickeya dadantii 3937 = experiment: microbe, parasite or virus in culture; assay type: cell-based; details: Dickeya dadantii, 3937, read-out: Diameter of Growth Inhibition Zone
[29] = system: Pseudomonas syringae. pv. tomato PT30; experiment: microbe, parasite or virus in culture; assay type: cell-based; details: read-out: Diameter of Growth Inhibition Zone
Erwinia amylovora CA11 = experiment: microbe, parasite or virus in culture; assay type: cell-based; details: CA11, read-out: Diameter of Growth Inhibition Zone
[30] = system: Xanthomonas arboricola pv. juglandis 417; experiment: microbe, parasite or virus in culture; assay type: cell-based; details: read-out: Diameter of Growth Inhibition Zone
Erwinia amylovora 110 = experiment: microbe, parasite or virus in culture; assay type: cell-based; details: Erwinia amylovora, 110, read-out: Diameter of Growth Inhibition Zone
[31] = system: Xanthomonas campestris pv. pruni; experiment: microbe, parasite or virus in culture; assay type: cell-based; details: read-out: Diameter of Growth Inhibition Zone
[32] = system: Pectobacterium carotovorum subsp brasillensis 944; experiment: microbe, parasite or virus in culture; assay type: cell-based; details: read-out: Diameter of Growth Inhibition Zone
[33] = system: Xanthomonas axonopodis pv. citri N40-SO5; experiment: plate diffusion assay; assay type: cell-based; details: read-out: Diameter of Growth Inhibition Zone
Erwinia amylovora 88 = experiment: microbe, parasite or virus in culture; assay type: cell-based; details: Erwinia amylovora, 88, read-out: Diameter of Growth Inhibition Zone
[34] = system: Pectobacterium atrosepticum 942; experiment: microbe, parasite or virus in culture; assay type: cell-based; details: Pectobacterium atrosepticum, 942, read-out: Diameter of Growth Inhibition Zone

CCCCCCc1c(O)cc(CCC)cc1O [DB2073]
Activity (MIC values) (Staphylococcus aureus): (25 μg/mL)
Activity [1]: Active against 22 bacteria and fungi,

CCCCCCc1c(O)cc(CCCCC)cc1O (single isomer, unassigned) [Peak 2, 2-hexyl-5-pentylbenzene-1,3-diol]
Activity (MIC values) [2]: ATCC 8043 (4.2 μg/mL)
Activity (MIC values) [3]: ATCC 6633(4.2 μg/mL)
Activity (MIC values) [4]: ATCC 25175(4.2 μg/mL)
MIC ([5]; Ralstonia solanacearum, K60): > 25000 µg/mL
MIC [6]: 78 µg/mL (≈ 295 µM)
MIC [7]: > 100 µg/mL
Activity (MIC values) (Fusarium culmorum): Fusarium culmorum (50 μg/mL)
Activity (MIC values) [8]: ATCC 12600 (2.1 μg/mL)
MIC [9]: 312 µg/mL (≈ 1180 µM)
MIC [10]: > 100 µg/mL
Activity (MIC values) (Candida albicans): Candida albicans (50 μg/mL)
MIC [11]: 1.56^c μg/mL
MIC ([11]; Clavibacter michiganensis): 1.56 µg/mL
Activity (MIC values) (Staphyllococcus aureus): Staphyllococcus aureus (7 μg/mL)
Activity (MIC values) (Aspergillus fumigatus): Aspergillus fumigatus (50 μg/mL)
Activity (MIC values) [12]: ATCC 14990 (4.2 μg/mL)
Activity: free radical scavenging [13]: Free radical scavenging substances
Activity: free radical scavenging ([13]; listed as Resorstatin): free radical scavenging substance
Activity (MIC values) (Drechslera sorokiniana): Drechslera sorokiniana (50 μg/mL)
MIC (Botrytis cinerea CA17): > 100 µg/mL
Activity (MIC values) (Pseudomonas sevastanoi): Pseudomonas sevastanoi (50 μg/mL)

O=C(O)c1cccc2nc3ccccc3nc12 (single isomer, unassigned) [Peak 4, phenazine-1-carboxylic acid]
MIC ([5]; Ralstonia solanacearum, K60): 6.25 µg/mL (≈ 27.9 µM)
MIC ([5]; agar dilution method): 6.25^b μg/mL
Active Against (Botrytis cinerea; Ref 1, producer P. aeruginosa LV Strain): Botrytis cinerea
reported to be effective against (Botrytis cinerea; Upadhyay and Srivastava, 2011): effective
MIC [6]: 100 µg/mL (≈ 446 µM)
Active Against (Seiridium cardinale): Seiridium cardinale
MIC [7]: 1.56 µg/mL (≈ 6.96 µM)
Active Against (order) [14]: Alternaria alternata > Phytophthora sp. >
MIC [9]: 100 µg/mL (≈ 446 µM)
MIC [10]: 31.3 µg/mL (≈ 140 µM)
MIC ([11]; Clavibacter michiganensis): 100 µg/mL
Active Against (Vibrio anguillarum C312): Vibrio anguillarum C312
Active Against (Fusarium oxysporum; Ref 7, producer P. fluorescens strain Psd): Fusarium oxysporum
reported to be effective against (Fusarium oxysporum; Upadhyay and Srivastava, 2011): effective
Active Against (Phytophthora infestans; Ref 2, producer P. fluorescens LBUM636): Phytophthora infestans
Active Against (Phytophthora infestans; Ref 3, producer P. fluorescens LBUM223): Phytophthora infestans
MIC (Botrytis cinerea CA17): 62.5 µg/mL (≈ 279 µM)
Active Against [15]: Gaeumannomyces graminis var. tritici.

CCCCCCCc1cc(O)c(CCCCCC)c(O)c1 (single isomer, unassigned) [Peak 3, 2-hexyl-5-heptylbenzene-1,3-diol]
Activity (MIC values) [2]: ATCC 8043 (8.4 μg/mL)
Activity (MIC values) [3]: ATCC 6633(33.4 μg/mL)
Activity (MIC values) [4]: ATCC 25175(8.4 μg/mL)
MIC ([5]; Ralstonia solanacearum, K60): > 25000 µg/mL
MIC [6]: 78 µg/mL (≈ 267 µM)
MIC [7]: > 100 µg/mL
Activity (MIC values) [8]: ATCC 12600 (4.2 μg/mL)
MIC [9]: 156 µg/mL (≈ 533 µM)
MIC [10]: > 100 µg/mL
MIC ([11]; Clavibacter michiganensis): 0.78 µg/mL
MIC ([11]; modified broth dilution (microdilution) method): 0.78^c μg/mL
Activity (MIC values) [12]: ATCC 14990 (4.2 μg/mL)
MIC (Botrytis cinerea CA17): > 100 µg/mL

CN[C@H](CC(C)C)C(=O)N[C@H]1C(=O)N[C@@H](CC(N)=O)C(=O)N[C@H]2C(=O)N[C@H]3C(=O)N[C@H](C(=O)N[C@H](C(=O)O)c4cc(O)cc(O)c4-c4cc3ccc4O)[C@H](O)c3ccc(c(Cl)c3)Oc3cc2cc(c3O[C@@H]2O[C@H](CO)[C@@H](O)[C@H](O)[C@H]2O[C@H]2C[C@](C)(N)[C@H](O)[C@H](C)O2)Oc2ccc(cc2Cl)[C@H]1O [Vancomycin, reference compound]
MIC ([5]; Ralstonia solanacearum, K60): 100 µg/mL (≈ 69 µM)
MIC [6]: 50 µg/mL (≈ 34.5 µM)
MIC [9]: 100 µg/mL (≈ 69 µM)
MIC ([11]; Clavibacter michiganensis): 0.39 µg/mL
zone of inhibition at 200 µg/mL [16]: 12 mm
zone of inhibition at 200 µg/mL [17]: 11 mm
zone of inhibition at 200 µg/mL [18]: 13 mm

[H]/N=C(/N)N[C@H]1[C@H](O)[C@@H](O)[C@H](O[C@@H]2O[C@@H](C)[C@](O)(C=O)[C@H]2O[C@@H]2O[C@@H](CO)[C@H](O)[C@@H](O)[C@@H]2NC)[C@@H](N/C(N)=N\[H])[C@@H]1O [Streptomycin]
zone of inhibition at 200 µg/mL [19]: 0 mm
zone of inhibition at 200 µg/mL [20]: 5 mm
zone of inhibition at 200 µg/mL [21]: 6 mm
MIC ([5]; Ralstonia solanacearum, K60): 25 µg/mL (≈ 43 µM)
zone of inhibition at 200 µg/mL [22]: 3 mm
zone of inhibition at 200 µg/mL [23]: 5 mm
zone of inhibition at 200 µg/mL [24]: 0 mm
zone of inhibition at 200 µg/mL (Erwinia amylovora DM1): 0 mm
MIC [6]: 50 µg/mL (≈ 86 µM)
zone of inhibition at 200 µg/mL [25]: 21 mm
zone of inhibition at 200 µg/mL (Erwinia amylovora 1189): 5 mm
MIC [9]: 3.13 µg/mL (≈ 5.38 µM)
zone of inhibition at 200 µg/mL [26]: 3 mm
zone of inhibition at 200 µg/mL [27]: 6 mm
zone of inhibition at 200 µg/mL [28]: 10 mm
zone of inhibition at 200 µg/mL (Dickeya dadantii 3937): 5 mm
zone of inhibition at 200 µg/mL [29]: 6 mm
MIC ([11]; Clavibacter michiganensis): 12.5 µg/mL
zone of inhibition at 200 µg/mL (Erwinia amylovora CA11): 0 mm
zone of inhibition at 200 µg/mL [30]: 10 mm
zone of inhibition at 200 µg/mL (Erwinia amylovora 110): 5 mm
zone of inhibition at 200 µg/mL [31]: 0 mm
zone of inhibition at 200 µg/mL [32]: 0 mm
zone of inhibition at 200 µg/mL [33]: 22 mm
zone of inhibition at 200 µg/mL (Erwinia amylovora 88): 0 mm
zone of inhibition at 200 µg/mL [34]: 0 mm
